A value given as a limit tells only on which side of the number the result lay.

We go through 14 molecules from US20140079636A1, “TARGETED THERAPEUTICS” (priority 2012, published 2014).

One series concerns HER2. Put plainly: Her2 degradation assay with BT-474 cell line (Example 12, FACS). Format: cell-based, human. The following applies: BT-474 cells. The text has this: HER2 has emerged as a key target for anticancer drugs due to its intrinsic involvement in the phosphatidylinositol-3-kinase-Akt/proteinkinase B (PI3K-Akt) and the mitogen-activated protein kinase (MAPK) pathways, both of which suppress apoptosis and promote tumor cell survival, gene transcription, angiogenesis, cellular proliferation, migration, mitosis, and differentiation. The degradation of HER2 is a measure of efficacy of anticancer therapeutics that target Hsp90. Accordingly, the SDC-TRAP molecules of the invention that comprise a binding moiety that binds Hsp90 were tested in the following HER2 degradation assay.
BT-474 cells (human breast cancer cell line ATCC HTB-20) were obtained from ATCC and seeded into 12-well tissue culture plates at 0.2×10^6/1.8 mL/well. […] Each test compound was titrated in 4-fold dilutions from 5 μM to 78 nM with DMSO and 200 μL of the titration was added to each well of the cell plate. The DMSO final concentration was 0.2%. Cells were incubated overnight at 37° C. in 5% CO2.
Media was decanted from the plate, cells were washed 1× in PBS. 400 μL trypsin (EDTA) per well was added and the cells were incubated for 2 to 3 minutes. […] The cytometer readout was normalized and the potency of each compound is evaluated with IC50 calculated with XL Fit software.
As to `CC(C)c1cc(-c2nnc(O)n2-c2ccc(CN3CCN(C(=O)CCn4cc(F)c(=O)[nH]c4=O)CC3)cc2)c(O)cc1O` [SDC-TRAP-0049], the IC50 (usually the concentration at which inhibition is half-maximal) was more than 5000 nM.

System in another series: not listed separately
Put plainly: Tissue distribution of ganetespib in female CD-1 nu/nu mice bearing RERF human NSCLC xenografts. Format: in vivo, mouse. The note with it: 5 min time point. The protocol:
Tissue Distribution of ganetespib in Female CD-1 nu/nu Mice Bearing RERF Human NSCLC Xenografts
To confirm the distribution of ganetespib in blood, livers, kidneys, brains, hearts, lungs and tumors after IV administration of ganetespib to female CD-1 nu/nu mice bearing RERF human NSCLC xenografts, and to examine metabolic profiles of ganetespib in plasma, red blood cells, and above tissues.
Animals: female CD-1 nu/nu mice bearing RERF human NSCLC xenografts (N=3/group)
Dosage: 50 mg/kg Dose level: 10 mL/kg Formulation: 10% DMSO, 18% Cremophor RH40, 3.6% dextrose solution (DRD) Bleeding time points: 5 min, 6, 24 hr Collected tissues: blood (plasma and red blood cells (RBC)), liver, kidneys, brain, heart, lung, tumor
Protein precipitation: 50 μL of 10 times diluted plasma or RBC+150 μL ACN (10 mM NH4OAc), vortexed and centrifuged at 10000 rpm for 8 min; 150 μL supernatant+150 μL water (10 mM NH4OAc)
Protein precipitation: 100 μL homogenized tissue (1:3 tissue:PBS buffer)+100 μL ACN (10 mM NH4OAc), vortexed and centrifuged at 10000 rpm for 8 min
On the technique in general: Xenograft models place foreign cells or tissue in a host animal.
On to `CC(C)c1cc(-c2n[nH]c(=O)n2-c2ccc3c(ccn3C)c2)c(O)cc1O` [ganetespib], for which the “Mean concentration in plasma relative to RBC (times higher)” value is given as “about 10”.

A further series concerns the target T1, Hsp90α (Homo sapiens, UniProt P07900).
T1 construct: purchased BPS Bioscience 50294
Put plainly: Hsp90α binding assay (fluorescence polarization, FITC-labeled geldanamycin). The note with it: read-out: Hsp90 binding EC50. The protocol:
An Hsp90^α fluorescence assay kit from BPS Bioscience (Cat #50294) containing Hsp90 recombinant enzyme, FITC-labeled geldanamycin, assay buffer and a low binding 384-well plate was used to assay Hsp90^α binding. Dithiothreitol (DTT)(Cat #D0643) and bovine serum albumin (BSA)(Cat #A2153) were obtained from Sigma-Aldrich. Fluorescence polarization was measured using a PHERAstar microplate reader from BMG LABTECH GmbH, Ortenherg, Germany.
The compounds were diluted to 1 mM in DMSO and loaded into a compound dilution plate to make 3-fold dilutions yielding a total of 8 concentrations. 1 µL of compound was transferred from the dilution plate to the low binding assay plate provided in the assay kit. 5 mL of Hsp90^□ binding solution was prepared having a final concentration of 7 ng/µL Hsp90^□, 5 nM FITC-labeled geldanamycin, 2 mM DTT and 0.1 mg/mL BSA. 49 μL of binding solution was added to each microplate well, incubated at room temperature for 1 hour, then read using the PHERAstar microplate reader. The high control sample contained no compound plus Hsp90^α; the low control sample contained no compound and no Hsp90^α. […] The IC50 was calculated using GraphPad Prism 4 software.
(In general: In fluorescence polarisation assays a small probe gives low polarisation when free and higher when bound to something large.)
With `CCc1c2c(nc3ccc(OC(=O)N4CCN(c5ccc(-n6c(O)nnc6-c6cc(C(C)C)c(O)cc6O)cc5)CC4)cc13)-c1cc3c(c(=O)n1C2)COC(=O)C3(O)CC` (stereo not drawn) [SDC-TRAP-0045, 4,11-diethyl-4-hydroxy-3,14-dioxo-3,4,12,14-tetrahydro-1H-pyrano[3′,4′:6,7]indolizino[1,2-b]quinolin-9-yl 4-(4-(3-(2,4-dihydroxy-5-isopropylphenyl)-5-hydroxy-4H-1,2,4-triazol-4-yl)phenyl)piperazine-1-carboxylate], the EC50 (commonly the midpoint of the concentration-response curve) was 96.6 nM. In the case of `CCc1c2c(nc3ccc(OC(=O)N4CCN(Cc5ccc(-n6c(O)nnc6-c6cc(C(C)C)c(O)cc6O)cc5)CC4)cc13)-c1cc3c(c(=O)n1C2)COC(=O)C3(O)CC` (stereo not drawn) [SDC-TRAP-0046, 4,11-diethyl-4-hydroxy-3,14-dioxo-3,4,12,14-tetrahydro-1H-pyrano[3′,4′:6,7]indolizino[1,2-b]quinolin-9-yl 4-(4-(3-(2,4-dihydroxy-5-isopropylphenyl)-5-hydroxy-4H-1,2,4-triazol-4-yl)benzyl)piperazine-1-carboxylate], the EC50 amounted to 102 nM. Take `CCc1c2c(nc3ccc(OC(=O)N4CCC(CCn5ccc6cc(-n7c(O)nnc7-c7cc(C(C)C)c(O)cc7O)ccc65)CC4)cc13)-c1cc3c(c(=O)n1C2)COC(=O)[C@]3(O)CC` [SDC-TRAP-0063, 4,11-diethyl-4-hydroxy-3,14-dioxo-3,4,12,14-tetrahydro-1H-pyrano[3′,4′:6,7]indolizino[1,2-b]quinolin-9-yl 4-(2-(5-(3-(2,4-dihydroxy-5-isopropylphenyl)-5-hydroxy-4H-1,2,4-triazol-4-yl)-1H-indol-1-yl)ethyl)piperidine-1-carboxylate]: the EC50 was determined as 157 nM. Consider `CCc1c2c(nc3ccc(O)cc13)-c1cc3c(c(=O)n1C2)COC(=O)[C@@]3(CC)OC(=O)N1CCC(CCn2ccc3cc(-n4c(O)nnc4-c4cc(C(C)C)c(O)cc4O)ccc32)CC1` [SDC-TRAP-0064, (S)-4,11-diethyl-9-hydroxy-3,14-dioxo-3,4,12,14-tetrahydro-1H-pyrano[3′,4′:6,7]indolizino[1,2-b]quinolin-4-yl 4-(2-(5-(3-(2,4-dihydroxy-5-isopropylphenyl)-5-hydroxy-4H-1,2,4-triazol-4-yl)-1H-indol-1-yl)ethyl)piperidine-1-carboxylate], for which the EC50 was found to be 122 nM. As for `COc1cc(O)c(-c2nnc(C(=O)NC(C)C)n2-c2ccc(CN3CCC(C(=O)Nc4cccc5c4CN(C4CCC(=O)NC4=O)C5=O)CC3)cc2)cc1C(C)C` (stereo not drawn) [SDC-TRAP-0115, N-(2-(2,6-dioxopiperidin-3-yl)-1-oxoisoindolin-4-yl)-1-(4-(3-(2-hydroxy-5-isopropyl-4-methoxyphenyl)-5-(isopropylcarbamoyl)-4H-1,2,4-triazol-4-yl)benzyl)piperidine-4-carboxamide], the EC50 came out at 203 nM. On to `CC(C)c1cc(-c2nnc(O)n2-c2ccc(CC3CCN(CC(=O)Nc4cccc5c4CN(C4CCC(=O)NC4=O)C5=O)CC3)cc2)c(O)cc1O` (stereo not drawn) [SDC-TRAP-0116, 2-(4-(4-(3-(2,4-dihydroxy-5-isopropylphenyl)-5-hydroxy-4H-1,2,4-triazol-4-yl)benzyl)piperidin-1-yl)-N-(2-(2,6-dioxopiperidin-3-yl)-1-oxoisoindolin-4-yl)acetamide], for which the EC50 amounted to 159 nM. Regarding `CC(C)c1cc(-c2nnc(O)n2-c2ccc(CC(=O)N(C)CCOC(=O)Nc3cccc4c3CN(C3CCC(=O)NC3=O)C4=O)cc2)c(O)cc1O` (stereo not drawn) [SDC-TRAP-0127, 2-(2-(4-(3-(2,4-dihydroxy-5-isopropylphenyl)-5-hydroxy-4H-1,2,4-triazol-4-yl)phenyl)-N-methylacetamido)ethyl(2-(2,6-dioxopiperidin-3-yl)-1-oxoisoindolin-4-yl)carbamate], the EC50 is 102 nM. Consider `CCNC(=O)c1nnc(-c2cc(C(C)C)c(O)cc2O)n1-c1ccc(CN2CCC(C(=O)N3CCC(n4cc(-c5cnc(N)c(O[C@H](C)c6c(Cl)ccc(F)c6Cl)c5)cn4)CC3)CC2)cc1` [SDC-TRAP-0134, (R)-4-(4-((4-(4-(4-(6-amino-5-(1-(2,6-dichloro-3-fluorophenyl)ethoxy)pyridin-3-yl)-1H-pyrazol-1-yl)piperidine-1-carbonyl)piperidin-1-yl)methyl)phenyl)-5-(2,4-dihydroxy-5-isopropylphenyl)-N-ethyl-4H-1,2,4-triazole-3-carboxamide], for which the EC50 amounted to 95.4 nM.

For the molecule `CCNC(=O)c1nnc(-c2cc(C(C)C)c(O)cc2O)n1-c1ccc(CN2CCC(C(=O)N3CCC(C(=O)N[C@H]4C[C@H](O[C@H]5C[C@](O)(C(=O)CO)Cc6c(O)c7c(c(O)c65)C(=O)c5c(OC)cccc5C7=O)O[C@@H](C)[C@H]4O)CC3)CC2)cc1` [SDC-TRAP-0198, 1-(1-(4-(3-(2,4-dihydroxy-5-isopropylphenyl)-5-(ethylcarbamoyl)-4H-1,2,4-triazol-4-yl)benzyl)piperidine-4-carbonyl)-N-((2S,3S,4S,6R)-3-hydroxy-2-methyl-6-(((1S,3S)-3,5,12-trihydroxy-3-(2-hydroxyacetyl)-10-methoxy-6,11-dioxo-1,2,3,4,6,11-hexahydrotetracen-1-yl)oxy)tetrahydro-2H-pyran-4-yl)piperidine-4-carboxamide], the EC50 worked out at 93.3 nM. On to `CCc1c2c(nc3ccc(OC(=O)N4CCC[C@H]4C(=O)N4CCN(c5ccc(-n6c(O)nnc6-c6cc(C(C)C)c(O)cc6O)cc5)CC4)cc13)-c1cc3c(c(=O)n1C2)COC(=O)[C@]3(O)CC` [SDC-TRAP-0204, (S)—(S)-4,11-diethyl-4-hydroxy-3,14-dioxo-3,4,12,14-tetrahydro-1H-pyrano[3′,4′:6,7]indolizino[1,2-b]quinolin-9-yl 2-(4-(4-(3-(2,4-dihydroxy-5-isopropylphenyl)-5-hydroxy-4H-1,2,4-triazol-4-yl)phenyl)piperazine-1-carbonyl)pyrrolidine-1-carboxylate], for which the EC50 amounted to 82.6 nM. On to `CCNC(=O)c1nnc(-c2cc(C(C)C)c(O)cc2O)n1-c1ccc(OC2CCN(C(=O)[C@@H]3CCCN3C(=O)Oc3ccc4nc5c(c(CC)c4c3)Cn3c-5cc4c(c3=O)COC(=O)[C@]4(O)CC)CC2)cc1` [SDC-TRAP-0209], for which the EC50 was 54.6 nM. Same read-out and setting: in the case of `CCc1c2c(nc3ccc(OC(=O)N4CCC[C@H]4C(=O)N4CCC(CCn5ccc6cc(-n7c(O)nnc7-c7cc(C(C)C)c(O)cc7O)ccc65)CC4)cc13)-c1cc3c(c(=O)n1C2)COC(=O)[C@]3(O)CC` [SDC-TRAP-0210] it was 91 nM.

In the next series the test system is MCF-7 breast cancer cells. Put plainly: Mouse xenograft efficacy in an MCF-7 breast cancer model. The following applies: 150 or 100 mg/kg/1×wk IV, versus irinotecan alone or ganetespib + irinotecan. In kind it is in vivo. The protocol: MCF-7 breast cancer cells were purchased from ATCC. […] Fetal bovine serum was then be added to the medium. The final concentration of fetal bovine serum was 10%. Cells were cultured at 37° C. and 5% CO2.
Mice that were not put on treatment were euthanized. Animals were sourced through CRL (Wilmington, Mass.).
On to `CCc1c2c(nc3ccc(OC(=O)N4CCC(CCn5ccc6cc(-n7c(O)nnc7-c7cc(C(C)C)c(O)cc7O)ccc65)CC4)cc13)-c1cc3c(c(=O)n1C2)COC(=O)[C@]3(O)CC` [SDC-TRAP-0063, 4,11-diethyl-4-hydroxy-3,14-dioxo-3,4,12,14-tetrahydro-1H-pyrano[3′,4′:6,7]indolizino[1,2-b]quinolin-9-yl 4-(2-(5-(3-(2,4-dihydroxy-5-isopropylphenyl)-5-hydroxy-4H-1,2,4-triazol-4-yl)-1H-indol-1-yl)ethyl)piperidine-1-carboxylate], for which the “Tumor growth suppression (tumor volume)” value is “greater tumor growth suppression than effector moiety irinotecan alone or unconjugated binding moiety ganetespib and effector moiety irinotecan administered together”.
